# Laboratory results published in ChEMBL document CHEMBL5360532, “Current scenario of quinolone hybrids with potential antibacterial activity against ESKAPE pathogens” (Eur J Med Chem, 2023).
# Tests used:
# Assay type in all cases: functional
# [1] = tested on: Staphylococcus aureus; test: Antibacterial activity against Staphylococcus aureus assessed as bacterial growth inhibition by broth microdilution assay
# [2] = tested on: Pseudomonas aeruginosa; test: Antibacterial activity against Pseudomonas aeruginosa assessed as bacterial growth inhibition by broth microdilution assay
# [3] = tested on: Escherichia coli; test: Antibacterial activity against Escherichia coli assessed as bacterial growth inhibition by broth microdilution assay
# [4] = tested on: Staphylococcus aureus; test: Antibacterial activity against methicillin resistant Staphylococcus aureus ATCC 33591 assessed as bacterial growth inhibition measured after 16 to 18 hrs by serial dilution method; conditions: time 16-18 hrs
# [5] = tested on: Escherichia coli; test: […] activity against Escherichia coli assessed as bacterial growth inhibition by broth dilution assay
# [6] = tested on: Enterococcus faecalis; test: Antibacterial activity against Enterococcus faecalis assessed as bacterial growth inhibition by broth microdilution assay
# [7] = tested on: Escherichia coli; test: Antibacterial activity against fluoroquinolone Escherichia coli assessed as bacterial growth inhibition by broth microdilution assay
# [8] = tested on: Staphylococcus aureus; test: Antibacterial activity against Staphylococcus aureus assessed as bacterial growth inhibition by two fold microdilution assay
# [9] = tested on: Escherichia coli; test: Antibacterial activity against Escherichia coli assessed as bacterial growth inhibition by two fold microdilution assay
# [10] = tested on: Klebsiella pneumoniae; test: Antibacterial activity against Klebsiella pneumoniae assessed as bacterial growth inhibition by two fold microdilution assay
# [11] = tested on: Pseudomonas aeruginosa; test: Antibacterial activity against Pseudomonas aeruginosa ATCC 11632 assessed as bacterial growth inhibition measured after 24 to 48 hrs by agar dilution assay; conditions: time 24-48 hrs
# [12] = tested on: Escherichia coli; test: Antibacterial activity against Escherichia coli ATCC 10536 assessed as bacterial growth inhibition measured after 24 to 48 hrs by agar dilution assay; conditions: time 24-48 hrs
# [13] = tested on: Staphylococcus aureus; test: Antibacterial activity against Staphylococcus aureus ATCC 6538P assessed as bacterial growth inhibition by two fold microdilution assay
# [14] = tested on: Escherichia coli; test: Antibacterial activity against Escherichia coli ATCC 8739 assessed as bacterial growth inhibition by two fold microdilution assay
# [15] = tested on: Escherichia coli; test: Potency index, ratio of ciprofloxacin MIC to test compound MIC for antimicrobial activity against Escherichia coli assessed as bacterial growth inhibition by agar cup diffusion assay
# [16] = tested on: Escherichia coli; test: Antibacterial activity against Escherichia coli ATCC 25922 assessed as bacterial growth inhibition measured after 18 hrs by agar dilution assay
# [17] = tested on: Staphylococcus aureus; test: Antibacterial activity against Staphylococcus aureus ATCC 25923 assessed as bacterial growth inhibition measured after 18 hrs by agar dilution assay
# [18] = tested on: Staphylococcus aureus; test: Antibacterial activity against clinical isolate methicillin resistant Staphylococcus aureus assessed as bacterial growth inhibition by microdilution assay
# [19] = tested on: Staphylococcus aureus; test: Antibacterial activity against Staphylococcus aureus ATCC 25923 assessed as bacterial growth inhibition by microdilution assay
# [20] = tested on: Escherichia coli; test: Antibacterial activity against Escherichia coli assessed as bacterial growth inhibition by agar cup diffusion assay
# [21] = tested on: Pseudomonas aeruginosa; test: Antibacterial activity against Pseudomonas aeruginosa assessed as bacterial growth inhibition by agar cup diffusion assay
# [22] = tested on: Staphylococcus aureus; test: Potency index, ratio of ciprofloxacin MIC to test compound MIC for antimicrobial activity against Staphylococcus aureus assessed as bacterial growth inhibition by agar cup diffusion assay
# [23] = tested on: Staphylococcus aureus; test: Antibacterial activity against Staphylococcus aureus assessed as bacterial growth inhibition by agar cup diffusion assay
# [24] = tested on: Klebsiella pneumoniae; test: Antibacterial activity against Klebsiella pneumoniae assessed as bacterial growth inhibition by agar cup diffusion assay
smiles,measurement,setting,value
CCn1cc(C(=O)O)c(=O)c2cc(F)c(N3CCN(Cn4nc(-c5ccncc5)oc4=S)CC3)cc21,MIC,[1],≤ 0.125 µg/mL
same,MIC,[2],≤ 0.125 µg/mL
same,MIC,[3],≤ 0.125 µg/mL
Cc1ccc(Oc2ccnc(Nc3ccc4c(=O)c(C(=O)O)cn(C5CC5)c4c3)n2)cc1C,MIC,[4],0.38 µg/mL
CCCCc1nn(CN2CCN(c3ncc4c(=O)c(C(=O)O)cn(CC)c4n3)CC2)c(=S)n1-c1cccc(OC)c1,MIC,[5],0.98 µg/mL
CCn1cc(C(=O)O)c(=O)c2cnc(N3CCN(Cn4nc(-c5ccc(OC)cc5)n(-c5ccc(C(C)(C)C)cc5)c4=S)CC3)nc21,MIC,[5],0.98 µg/mL
CCCc1nn(CN2CCN(c3ncc4c(=O)c(C(=O)O)cn(CC)c4n3)CC2)c(=S)n1-c1cccc(OC)c1,MIC,[5],0.98 µg/mL
C[C@H]1COc2c(N3CCN(C)CC3)c(F)cc3c(=O)c(C(=O)O)cn1c23 [LEVOFLOXACIN ANHYDROUS],MIC,[1],0.66 µg/mL
same,MIC,[6],0.72 µg/mL
same,MIC,[7],0.47 µg/mL
same,MIC,[3],0.47 µg/mL
Cc1ccc(-c2ccnc(Nc3ccc4c(=O)c(C(=O)O)cn(C5CC5)c4c3)n2)cc1C,MIC,[4],0.38 µg/mL
Cc1nn(Cc2nn(CN3CCN(c4cc5c(cc4F)c(=O)c(C(=O)O)cn5C4CC4)CC3)c(=O)n2-c2ccccc2)c(=O)n1/N=C/c1ccccc1O,MIC,[8],< 28 µg/mL
same,MIC,[9],< 0.24 µg/mL
same,MIC,[10],< 0.24 µg/mL
COc1c(N2CCNC(C)C2)c(F)cc2c(=O)c(C(=O)O)cn(C3CC3)c12 (configuration not stated) [GATIFLOXACIN],MIC,[1],0.72 µg/mL
same,MIC,[11],0.25 µg/mL
same,MIC,[6],0.47 µg/mL
same,MIC,[7],0.66 µg/mL
same,MIC,[3],0.66 µg/mL
same,MIC,[12],0.25 µg/mL
C[C@@H](N)C(=O)N1CCN(c2cc3c(cc2F)c(=O)c(C(=O)N2CCOCC2)cn3C2CC2)CC1,MIC,[3],0.4 µg/mL
CCn1cc(C(=O)O)c(=O)c2cc(F)c(N3CCN(Cn4nc(-c5cccs5)n(-c5ccc(OC)cc5)c4=S)CC3)cc21,MIC,[13],≤ 0.125 µg/mL
same,MIC,[14],≤ 0.125 µg/mL
same,MIC,[10],≤ 0.125 µg/mL
O=C(O)c1cn(C2CC2)c2cc(N3CCN(C(=O)CCSc4nnnn4-c4ccc(C(F)(F)F)cc4)CC3)c(F)cc2c1=O,Ratio,[15],2
O=C(O)c1cn(C2CC2)c2cc(N3CCN(Cc4cn(-c5ccccc5)nn4)CC3)c(F)cc2c1=O,MIC,[16],0.12 µg/mL
same,MIC,[17],0.12 µg/mL
Cc1nn(Cc2nn(CN3CCN(c4cc5c(cc4F)c(=O)c(C(=O)O)cn5C4CC4)CC3)c(=S)n2Cc2ccccc2)c(=O)n1/N=C/c1ccccc1O,MIC,[8],< 28 µg/mL
same,MIC,[9],< 0.24 µg/mL
same,MIC,[10],< 0.24 µg/mL
CCn1nnnc1SCCC(=O)N1CCN(c2cc3c(cc2F)c(=O)c(C(=O)O)cn3C2CC2)CC1,Ratio,[15],2
Cc1nn(Cc2nn(CN3CCN(c4cc5c(cc4F)c(=O)c(C(=O)O)cn5C4CC4)CC3)c(=S)n2-c2ccccc2)c(=O)n1/N=C/c1ccccc1O,MIC,[8],< 28 µg/mL
same,MIC,[9],< 0.24 µg/mL
same,MIC,[10],< 0.24 µg/mL
CCn1cc(C(=O)O)c(=O)c2cnc(N3CCNCC3)nc21 [PIPEMIDIC ACID],MIC,[16],19.5 µg/mL
same,MIC,[17],19.5 µg/mL
CCn1cc(C(=O)O)c(=O)c2cc(F)c(N3CCN(Cn4nc(Cn5nc(C)n(/N=C/c6ccccc6O)c5=O)n(-c5ccccc5)c4=O)CC3)cc21,MIC,[8],< 28 µg/mL
same,MIC,[9],< 0.24 µg/mL
same,MIC,[10],< 0.24 µg/mL
COc1c(N2C[C@H]3CCCN(S(=O)(=O)c4ccccc4)[C@H]3C2)c(F)cc2c(=O)c(C(=O)O)cn(C3CC3)c12,MIC,[18],< 2.64 µg/mL
same,MIC,[19],< 2.64 µg/mL
CCn1cc(C(=O)O)c(=O)c2cnc(N3CCN(Cc4cn(-c5ccc([N+](=O)[O-])cc5)nn4)CC3)nc21,MIC,[16],0.12 µg/mL
same,MIC,[17],0.12 µg/mL
O=C(O)c1cn(C2CC2)c2cc(N3CCN(C(=O)CCSc4nnnn4-c4ccc(F)c(F)c4F)CC3)c(F)cc2c1=O,Ratio,[15],2
Cc1ccc(-c2ccnc(Nc3ccc4c(=O)c(C(=O)O)cn(C5CC5)c4c3)n2)cc1,MIC,[4],0.38 µg/mL
CCn1cc(C(=O)O)c(=O)c2cc(F)c(N3CCN(Cn4nc(-c5ccncc5)n(-c5ccc(OC)cc5)c4=S)CC3)cc21,MIC,[13],≤ 0.125 µg/mL
same,MIC,[14],≤ 0.125 µg/mL
same,MIC,[10],≤ 0.125 µg/mL
CCn1cc(C(=O)O)c(=O)c2cc(F)c(N3CCN(Cn4nc(-c5cnccn5)oc4=S)CC3)cc21,MIC,[1],≤ 0.125 µg/mL
same,MIC,[2],≤ 0.125 µg/mL
same,MIC,[3],≤ 0.125 µg/mL
Cc1ccc(-n2cc(CN3CCN(c4cc5c(cc4F)c(=O)c(C(=O)O)cn5C4CC4)CC3)nn2)cc1,MIC,[16],0.12 µg/mL
same,MIC,[17],0.12 µg/mL
COc1cc(-n2nnnc2SCCC(=O)N2CCN(c3cc4c(cc3F)c(=O)c(C(=O)O)cn4C3CC3)CC2)cc(OC)c1OC,Ratio,[15],2
CCc1nn(CN2CCN(c3ncc4c(=O)c(C(=O)O)cn(CC)c4n3)CC2)c(=S)n1-c1cccc(OC)c1,MIC,[5],0.98 µg/mL
O=C(CN1CCN(c2cc3c(cc2F)c(=O)c(C(=O)O)cn3C2CC2)CC1)Nc1nnc(-c2ccc(Cl)cc2)s1,MIC,[20],1.12 µg/mL
same,MIC,[21],9.11 µg/mL
same,Ratio,[15],4.6
same,Ratio,[22],4.6
same,MIC,[23],1.12 µg/mL
same,MIC,[24],1.12 µg/mL
CCn1cc(C(=O)O)c(=O)c2cc(F)c(N3CCN(Cn4nc(-c5ccco5)oc4=S)CC3)cc21,MIC,[1],≤ 0.125 µg/mL
same,MIC,[2],≤ 0.125 µg/mL
same,MIC,[3],≤ 0.125 µg/mL
CCn1cc(C(=O)O)c(=O)c2cc(F)c(N3CCN(Cc4cn(-c5ccc([N+](=O)[O-])cc5)nn4)CC3)cc21,MIC,[16],0.12 µg/mL
same,MIC,[17],0.12 µg/mL
CCCCCCOc1ccc(C2C(Cl)C(=O)N2c2cc3[nH]cc(C(=O)O)c(=O)c3cc2F)cc1 (configuration not stated),MIC,[1],0.02 µg/mL
same,MIC,[6],0.02 µg/mL
same,MIC,[7],0.02 µg/mL
same,MIC,[3],0.02 µg/mL
CCCCCOc1ccc(C2C(Cl)C(=O)N2c2cc3[nH]cc(C(=O)O)c(=O)c3cc2F)cc1 (configuration not stated),MIC,[1],0.02 µg/mL
same,MIC,[6],0.02 µg/mL
same,MIC,[7],0.02 µg/mL
same,MIC,[3],0.02 µg/mL
CCn1cc(C(=O)O)c(=O)c2cc(F)c(N3CCN(Cn4nc(Cn5nc(C)n(/N=C/c6ccccc6O)c5=O)n(Cc5ccccc5)c4=S)CC3)cc21,MIC,[8],< 28 µg/mL
same,MIC,[9],< 0.24 µg/mL
same,MIC,[10],< 0.24 µg/mL
O=C(O)c1cn(C2CC2)c2cc(N3CCN(C(=O)CCSc4nnnn4-c4ccccc4)CC3)c(F)cc2c1=O,Ratio,[15],2
CCn1cc(C(=O)O)c(=O)c2cc(F)c(N3CCN(Cn4nc(-c5ccccn5)n(-c5ccc(OC)cc5)c4=S)CC3)cc21,MIC,[13],≤ 0.125 µg/mL
same,MIC,[14],≤ 0.125 µg/mL
same,MIC,[10],≤ 0.125 µg/mL
CCn1cc(C(=O)O)c(=O)c2cc(F)c(N3CCN(Cn4nc(-c5ccccc5O)n(-c5ccc(OC)cc5)c4=S)CC3)cc21,MIC,[13],≤ 0.125 µg/mL
same,MIC,[14],≤ 0.125 µg/mL
same,MIC,[10],≤ 0.125 µg/mL
CC1(C)S[C@@H]2[C@H](NC(=O)[C@H](N)c3ccccc3)C(=O)N2[C@H]1C(=O)O [AMPICILLIN],MIC,[11],0.5 µg/mL
same,MIC,[12],0.5 µg/mL
O=C(CSC(=S)N1CCN(c2cc3c(cc2F)c(=O)c(C(=O)O)cn3C2CC2)CC1)Nc1cccc(Cl)c1,MIC,[1],0.024 µg/mL
same,MIC,[2],0.024 µg/mL
CCn1cc(C(=O)O)c(=O)c2cc(F)c(N3CCN(Cn4nc(Cn5nc(C)n(/N=C/c6ccccc6O)c5=O)n(-c5ccccc5)c4=S)CC3)cc21,MIC,[8],< 28 µg/mL
same,MIC,[9],< 0.24 µg/mL
same,MIC,[10],< 0.24 µg/mL
Cn1c(=O)c(C(=O)CNc2ccc(-c3nc4ccc(Cl)c(Cl)c4s3)cc2)c(O)c2ccccc21,MIC,[11],0.5 µg/mL
same,MIC,[12],0.5 µg/mL
O=C(O)c1cn(C2CC2)c2cc(N3CCN(C(=O)CCSc4nnnn4-c4ccc(Br)cc4)CC3)c(F)cc2c1=O,Ratio,[15],2
CCn1cc(C(=O)O)c(=O)c2cc(F)c(N3CCN(Cn4nc(-c5cccnc5)oc4=S)CC3)cc21,MIC,[1],≤ 0.125 µg/mL
same,MIC,[2],≤ 0.125 µg/mL
same,MIC,[3],≤ 0.125 µg/mL
CCn1cc(C(=O)O)c(=O)c2cc(F)c(N3CCN(Cc4cn(-c5ccccc5)nn4)CC3)cc21,MIC,[16],0.12 µg/mL
same,MIC,[17],0.12 µg/mL
CCn1cc(C(=O)O)c(=O)c2cnc(N3CCN(Cc4cn(-c5ccccc5)nn4)CC3)nc21,MIC,[16],0.12 µg/mL
same,MIC,[17],0.12 µg/mL
